From US20250327032A1, “AGENT FOR AVOIDING IMMUNE RESPONSE OF TRANSGENIC CELLS” (HYPERION DRUG DISCOVERY CO., LTD., priority 2021, published 2025)

Columns and labels:
Format in all cases: cell-based
TNF-α = TNF-α expression level (qPCR) after introduction of GFP mRNA containing pseudouridine; conditions: human mesenchymal stem cells; JSH-23 10 μM; GFP mRNA containing pseudouridine 10 pg/cell; compared to pseudouridine only
Protocol: Reduction of TNF-α expression level using JSH-23 in introduction of GFP mRNA into human mesenchymal stem cells (hMSCs) Human mesenchymal stem cells were seeded in a 6-well plate to be about 10,000 cells/cm^2. As a culture solution, αMEM (+10% serum) supplemented with 10 μM of JSH-23 was used. As a control, αMEM (+10% serum) supplemented with 0.1% (v/v) DMSO instead of JSH-23 was used as a culture solution.
A lipofection solution was prepared by adding Lipofectamine RNAiMAX and fluorescent protein GFP mRNA to OptiMEM. The GFP mRNA containing pseudouridine instead of uridine was used. It was prepared so that the amount of mRNA was 10 pg/cell. The prepared lipofection solution was mixed well according to the manufacturer's recommended protocol and allowed to stand at room temperature for about 15 minutes.
Next, each lipofection solution was added to the plate seeded with human mesenchymal stem cells or human myoblasts, and cultured in a CO2 incubator at 37° C. for about 1 day (18 hours). […]
cDNA was synthesized from the purified RNA using SuperScript™ III Reverse Transcriptase according to the manufacturer's protocol. qPCR was performed using synthesized cDNA and PCR primers and PowerTrack™ SYBR Green Master Mix. The measured Ct value of TNF-α was normalized with the Ct value of β-actin, a housekeeping gene.

[1] = tested on: human mesenchymal stem cells; experiment: Introduction of GFP viral vector (polybrene method), yield of GFP-positive cells; conditions: JSH-23 1 μM; GFP viral vector MOI 10, polybrene 5 μg/mL
Protocol: (§1) Human mesenchymal stem cells were seeded in a 6-well plate to be about 2,000 cells/cm^2. Human myoblasts were seeded in another 6-well plate to be about 2,000 cells/cm^2. As a culture solution, a basal medium for each cell supplemented with JSH-23 was used. JSH-23 was added at 1 μM to the culture solution used for human mesenchymal stem cells, and at 0.1 μM to the culture solution used for human myoblasts. As a control, a basal medium, i.e., αMEM (+10% serum) for human mesenchymal stem cells and MCDB131 (+10% serum) for human myoblasts, to which 0.1% (v/v) DMSO instead of JSH-23 was added was used as a culture solution.
A mixed solution was prepared by mixing GFP viral vector and a polybrene solution. The amount of GFP viral vector was prepared to be MOI of 10, and the amount of polybrene was prepared to be 5 μg/mL. […]
Four days after the addition of the virus-free culture solution, the cells were detached with a cell detachment solution and centrifuged at 600×g for 5 minutes using a centrifuge, to collect the cells. The collected cells were counted using a hemocytometer. Furthermore, the GFP-positive percentage of the collected cells was measured using a flow cytometer. The yield of the number of GFP-positive cells was calculated from the number of cells counted and the GFP-positive percentage.

[2] = tested on: human mesenchymal stem cells; experiment: Introduction of TERT plasmid by lipofection, number of viable cells; conditions: JSH-23 1 μM; TERT plasmid DNA 10 pg/cell
Protocol: Human mesenchymal stem cells were seeded in a 6-well plate to be about 10,000 cells/cm^2. As a culture solution, αMEM (+10% serum) supplemented with 1 μM of JSH-23 was used. As a control, αMEM (+10% serum) supplemented with 0.1% (v/v) DMSO instead of JSH-23 was used as a culture solution.
A lipofection solution was prepared by adding Lipofectamine RNAiMAX and TERT plasmid DNA to OptiMEM. The amount of plasmid DNA was prepared to be 10 pg/cell.
Next, the lipofection solution was added to the plate seeded with human mesenchymal stem cells, and cultured in a CO2 incubator at 37° C. for 18 hours. After culturing, all the culture solution comprising the lipofection solution was removed and replaced with a new culture solution having the same composition as before the addition of the lipofection solution.
After another 6 hours, the above lipofection solution was newly prepared, added again to the plate seeded with human mesenchymal stem cells, and cultured in a CO2 incubator at 37° C. for 18 hours. These steps were repeated so that the introduction of genes was performed a total of 4 times.
Twenty-four hours after the final introduction of genes, the cells were detached with a cell detachment solution, centrifuged at 600×g for 5 minutes using a centrifuge, to collect the cells. The collected cells were counted using a hemocytometer.

human myoblasts = experiment: Introduction of GFP viral vector (polybrene method), yield of GFP-positive cells; conditions: JSH-23 0.1 μM; GFP viral vector MOI 10, polybrene 5 μg/mL
Protocol: as §1
A mixed solution was prepared by mixing GFP viral vector and a polybrene solution. […]
Next, the above mixed solution was added to the plate seeded with human mesenchymal stem cells or human myoblasts, and cultured in a CO2 incubator at 37° C. for 24 hours.
Four days after the addition of the virus-free culture solution, the cells were detached with a cell detachment solution and centrifuged at 600×g for 5 minutes using a centrifuge, to collect the cells. The collected cells were counted using a hemocytometer. Furthermore, the GFP-positive percentage of the collected cells was measured using a flow cytometer. The yield of the number of GFP-positive cells was calculated from the number of cells counted and the GFP-positive percentage. […]

Cc1ccc(NCCCc2ccccc2)c(N)c1 [JSH-23]
expression level of TNF-α (normalized with β-actin) (TNF-α): further reduced | number of GFP-positive cells relative to control [1]: increased | number of viable cells compared to the control (control set to 1) [2]: ≥ 1.4 times | number of GFP-positive cells relative to control (human myoblasts): increased
